Laboratory results taken from patent US20050096395A1, “Methods of treating attention deficit/hyperactivity disorder (adhd)” (priority 2002, published 2005).

Tests used:
[1] = tested on: spontaneously hypertensive rats (SHR); assay: delayed gratification response paradigm in animal model of AD/HD; assay type: in vivo, rat; settings: 5, 10, 25 or 50 mg/kg over twenty-one days
Description: In this study, spontaneously hypertensive rats (SHR) are used as an animal model for AD/HD. The SHR animal model is described in Russell et al., 2000, Behavioral Brain Research, 117: 69-74; Russell, 2001, Metab. Brain Dis., 16: 143-149; and Sagvolden et al., 1992, Behav. Neural Biol., 58: 103-112. The study consists of two groups of rats: normal and SHR. Each group is further divided into two subgroups: placebo and milnacipran. […] The milnacipran is administered to the rats over a period of twenty-one days. The rats are from the normal and SHR groups are trained in the delayed gratification response paradigm as described in […] et al., 1996, Pharmacology and Biochemistry and Behavior, 54: 149-157. In this paradigm, rats learn to choose between five food pellets delivered after 30 seconds and one food pellet delivered after 5 seconds. Normal rats learn to choose the five food pellets delivered after 30 seconds at a higher frequency.

[2] = tested on: rats described in McGrath et al., 2000; assay: animal model of tic disorder (McGrath et al., 2000); assay type: in vivo, rat; settings: 5, 10, 25 or 50 mg/kg over twenty-one days, before vs after administration
Description: The rats are divided into two groups: placebo and milnacipran. […] The milnacipran is administered to the rats over a period of twenty-one days.

[3] = tested on: patients with AD/HD and comorbid tic disorder; assay: randomized, double-blind, placebo-controlled trial in patients with AD/HD and comorbid tic disorder; assay type: in vivo, human; settings: patients 7-15 years; 1.5-2 mg/kg/day; after 8 weeks of treatment
Excerpt: This study is a randomized, double-blind, placebo-controlled trial of parallel groups. […] Before entry into the study, each patient undergoes a detailed clinical evaluation by a psychiatrist and/or a psychologist. The diagnosis of AD/HD and comorbid tic disorder is made on the basis of this interview. Entry criteria includes age between 7 and 15 years, a DSM-IV diagnosis of AD/HD (any type), a DSM-IV tic disorder (any type), and a score of ≧1.5 standard deviation units for age and gender on the 10-item Conners hyperactivity index (Goyette et al., 1978, J. Abnorm. Child Psychol., 6: 221-236) rated by a teacher or parent. Exclusion criteria includes evidence of major depression, generalized anxiety disorder, separation anxiety disorder, or psychotic symptoms. Children with moderate or more severe tic symptoms (Yale Global Tic Severity Scale [[…] et al., 1989, J Am Acad Child Adolesc Psychiatry, 28: 566-573] total tic score of>22) or significant obsessive-compulsive symptoms (Children's Yale Brown Obsessive Compulsive Scale [[…] et al., 1997, J Am Acad Child Adolesc Psychiatry, 36: 844-852] total score>15) are also excluded. Before entry into the study the patients are tapered off their current medication. The participants in the study are randomly divided into two groups-milnacipran group and placebo control group. Each group consists of 5 patients. […] The patients in the placebo group are administered a placebo for 8 weeks. The patient's course is followed at visits with a primary clinician, who is blind to the patient's study group, every 2 weeks. The AD/HD rating scale, Clinical Global Impression global improvement score, and Yale Global Tic Severity Scale are used to follow the outcome measures. […] Each symptom was scored by the child's teacher from 0 to 3 (0=never [or rarely], 1=sometimes, 2=often, and 3=very often). […] A score of much improved or very much improved, reflecting meaningful improvement in AD/HD symptoms both at school and at home, is counted as a positive response. […]

[4] = tested on: norepinephrine reuptake; settings: cited from earlier work
[5] = target: NMDA receptor; settings: cited from earlier work

With CCN(CC)C(=O)[C@]1(c2ccccc2)C[C@@H]1CN (racemic) [milnacipran, cis-(±)-2-(aminomethyl)-N,N-diethyl-1-phenyl-yclopropanecarboxamide] the “time required by SHR rats to choose five food pellets delivered after 30 seconds at a higher frequency” value [1] was “reduced, approaching the amount of time required by the normal rats”, the “abnormal behavior such as climbing/leaping, gnawing, and other tic-like behaviors” value [2] was “reduces the abnormal behavior” and the “AD/HD Rating Scale” value [3] was “improvement”. The “Clinical Global Improvement Scale” value [3] was “improvement”, the “Yale Global Tic Severity Scale” value [3] was “improvement” and the IC50 [4] was […]. The IC50 [5] was roughly 6.3 µM.
